Assay results from patent publication US20060088899A1, “Combination chemotherapy with chlorotoxin” (priority 2002, published 2006).
Read-outs that look alike come from different tables or passages of the source. Ends that are not written are not given here. * marks the point of attachment. Biotin = O=C1N[C@H]2[C@H](CS[C@H]2CCCCC(=O)*)N1

Key:
[1] = system: PC3 human prostate cancer cells; format: binding
From the text: In order to compare binding of the short scorpion toxins, the regions homologous to peptide 21 of small toxin and probable toxin LQH-8/6 were synthesized and biotinylated for analysis in the chlorotoxin binding assay (see Table 8 for amino acid sequences of the peptides).

[2] = system: U251 and PC3 cells; conditions: alanine-substituted 9-mers versus native 9-mer
[3] = system: PC-3; assay: Chemotherapeutic agent cytotoxicity, CCK-8 assay; format: cell-based; conditions: Homo sapiens, 120 h, two to five days treatment
Procedure: (§1) A tissue culture method was optimized to test the effects of various chemotherapeutic agents on multiple cancer cell lines (see Table 1). Cells were plated on 96-well microtiter tissue culture plates at a density of approximately 1000-2000 cells per well, depending on the specific cell line. Cells were allowed to adhere twenty-four hours in a 37° C., humidified cell culture incubator supplied with five percent carbon dioxide. In order to achieve a dose-response curve for each drug in each cell line, cells were treated with decreasing concentrations of a specific cytotoxic compound for two to five days. Following treatment, the cytotoxic effect of the drug was quantified using the Cell Counting Kit-8 (CCK-8) (Dojindo Inc.) according to the manufacturer's instructions. In brief, following the treatment period with the cytotoxic drug, cells were incubated with CCK-8 reagent and incubated at 37° C. for one to four hours, depending on the specific cell type. After incubation, plates were read on a microplate reader at a wavelength of 490 nm. The IC50 of each drug was calculated from a X-Y scatter plot of the negative log concentration of drug versus mean optical density (Table 2).

[4] = system: D54-MG; assay: Chemotherapeutic agent cytotoxicity, CCK-8 assay; format: cell-based, Human; conditions: two to five days treatment
Procedure: as §1

[5] = system: D54MG Glioblastoma cells; conditions: for ^3H-Thymidine uptake ± SD (CPM): 24 hours incubation
Procedure: The purpose of this experiment was to determine if the proliferation D54MG Glioblastoma cells, as measured by ^3H-thymidine uptake, is effected by Peptide 21, a segment of the full chlorotoxin sequence. The sequence of peptide 21 and its relation to chlorotoxin is shown in the sequence below:
D54MG cells were plated in a 24 well plate at 100,000 cells/ml/well using five rows of four wells for each concentration. The cells were allowed to adhere in normal media for twenty-four hours at 37° C. and 5% carbon dioxide. TM-701 was diluted to a […] stock solution and added to each row at the concentrations of 0, 20, 80, 160 and 320 nM.
The cells and peptide 21 were allowed to incubate for 24 hours at 37° C. and 5% carbon dioxide. After twenty-four hours, the cells were rinsed two times with warm PBS. Normal media was added back to the cells at 1 ml/well. One μCi of ^3H-thymidine was added to each well (1 μl of 1 mCi/ml ^3H-thymidine to each well). The plate was incubated for two hours at 37° C. The media and thymidine were removed and the wells were rinsed with ice-cold phosphate-buffered saline three times. To each well was added 1 ml of 0.3 N NaOH. The plate was incubated in the 37° C. incubator for thirty minutes. Each well of 0.3 N NaOH was pipetted up and down three to four times and removed from the plate and the solution was placed in scintillation vials for counting. Scintillation fluid at four times the amount of sample was added to the vials (4 ml). Each vial was counted on the scintillation counter for one minute.

[6] = system: crayfish; assay: Crayfish paralysis assay; format: in vivo; conditions: 10-mer peptides
[7] = system: SKMEL28; assay: Chemotherapeutic agent cytotoxicity, CCK-8 assay; format: cell-based, Human; conditions: two to five days treatment
Procedure: as §1

[8] = system: U251 glioma flank tumors; assay: Temodar plus chlorotoxin in glioma flank tumor model; format: in vivo, Nude mice; conditions: i.p., temodar 13.2 mg/kg, chlorotoxin 0.080 mg/kg
Procedure: The purpose of this study was to determine whether hydroxyurea or temodar combined with chlorotoxin were sufficient to inhibit tumor growth as indicated from in vitro studies with glioma cell lines. […] Combination treatment with chlorotoxin with hydroxyurea or temodar in mice with glioma flank tumors was compared to the treatment group of hydroxyurea or temodar alone and saline alone. Hydroxyurea and temodar dosage was based on the lowest dosage (10 mg/kg body weight) used in previous studies to determine clearance from the body in the treatment of sickle cell disease paradigm in nude mice (Iyamu et al. (2001) Chemotherapy 47, 270-278). […]
Mice with established flank tumors were each treated with 0.100 ml injection (i.p) of sterilized solutions consisting of either of saline, saline and hydroxyurea or temodar (13.2 mg/kg body weight), or saline, hydroxyurea or temodar (13.2 mg/kg) and chlorotoxin (0.080 mg/kg body weight). Tumor volume was calculated based on the measurements with the same set of calipers on the indicated days by determining the length×width×height of the tumor of non-anesthetized mice. […] Statistical significance was determined according to a one-way ANOVA test.

[9] = system: U251; assay: Chemotherapeutic agent cytotoxicity, CCK-8 assay; format: cell-based; conditions: Homo sapiens, U-251, 120 h, two to five days treatment
Procedure: as §1

[10] = system: SKMEL31; assay: Chemotherapeutic agent cytotoxicity, CCK-8 assay; format: cell-based; conditions: Homo sapiens, 120 h, two to five days treatment
Procedure: as §1

[11] = PC3 cells, biotinylated peptides
[12] = Homo sapiens, D54MG, 120 h, read-out: IC50
[13] = Homo sapiens, SK-MEL-28, 120 h, read-out: IC50

negative peptide (GKCYGPQCLC; Chlorotoxin; listed as Leiurus quinquestriatus)
binding [1, 11]: 110 % of background levels

Biotin-TDHAMARKS [Peptide 21a-A4]
binding of the peptide to cells [2]: may be equal to or greater than chlorotoxin itself

NC(=O)NO [Hydroxyurea, hyroxycarbamide]
IC50 [3]: 35000 µM

TTDPQMSKK [Peptide 21ST, biotinylated region of small toxin homologous to peptide 21]
binding [1, 11]: 225.26 % of background levels

O=c1[nH]cc(F)c(=O)[nH]1 [5-Fluorouracil, fluorouracil]
IC50 [4, 12]: 1.5 mg/L

Biotin-TTDHQMARKS [peptide 21]
uptake of ^3H-thymidine, dose dependence ([5]; 0 to 320 nM): decreases in a does-dependent manner
^3H-Thymidine uptake ± SD (CPM) ([5]; 20 nM): 7795 ± 634 CPM
^3H-Thymidine uptake ± SD (CPM) ([5]; 80 nM): 7412 ± 630 CPM
^3H-Thymidine uptake ± SD (CPM) ([5]; 160 nM): 6983 ± 329 CPM
^3H-Thymidine uptake ± SD (CPM) ([5]; 320 nM): 5782 ± 886 CPM
binding [1]: 232.50 % of background levels
paralysis of crayfish [6]: effective

N.N.[Cl][Pt][Cl] [Cisplatin, cis-diamminedichloroplatinum]
IC50 [7]: 8 mg/L
IC50 [4]: 10 mg/L

TTDQQMTKK [Peptide 21LQ, biotinylated region of probable toxin LQH-8/6 homologous to peptide 21]
binding [1, 11]: 242.32 % of background levels

Cn1nnc2c(C(N)=O)ncn2c1=O [Temodar, temozomide]
IC50 [7, 13]: 30 µM
IC50 [4, 12]: 120 µM
growth of the xenografted tumor (percent change of tumor volume) [8]: little effect
IC50 [9]: 150 µM
IC50 [10]: 150 µM

COc1cccc2c1C(=O)c1c(O)c3c(c(O)c1C2=O)C[C@@](O)(C(=O)CO)C[C@@H]3O[C@H]1C[C@H](N)[C@H](O)[C@H](C)O1 [Doxorubicin, hydroxyl daunorubicin]
IC50 [7, 13]: 0.04 mg/L
IC50 [4, 12]: 0.06 mg/L
IC50 [9]: 0.03 mg/L
IC50 [10]: 0.035 mg/L

CC(=O)O[C@H]1C(=O)[C@@]2(C)[C@H]([C@H](OC(=O)c3ccccc3)[C@]3(O)C[C@H](OC(=O)[C@H](O)[C@@H](NC(=O)c4ccccc4)c4ccccc4)C(C)=C1C3(C)C)[C@]1(OC(C)=O)CO[C@@H]1C[C@@H]2O [Paclitaxel, paclitaxel]
IC50 [4, 12]: 0.0105 µM
IC50 [9]: 0.008 µM
IC50 [10]: 0.025 µM
